Results reported in patent publication US9067977B2, “Peptides derivatized with A-B-C-D- and their therapeutical use” (Novo Nordisk A/S, priority 2007, dated 2015).
pEC50: −log10 of the molar value. Starred links: 1 amine or outer side, 2 acyl side, 3 side chain; linkers in the order of their positions; H or OH if unused. Non-standard residues stand in square brackets, D forms with d. Residues, ends and D or L forms follow the SMILES beside them. Groups on a side chain read outwards from the residue. *: point of attachment. X1 = O=C(CCCCCCCCCCCCCCCc1nnn[nH]1)NS(=O)(=O)CCCC(=O)*; C20 diacid = O=C(O)CCCCCCCCCCCCCCCCCCC(=O)*; d(βAsp) = O=C(O)[C@@H](CC(=O)[*:2])N[*:1]; γGlu = O=C(O)[C@H](CCC(=O)[*:2])N[*:1]; Desaminohistidyl = O=C(CCc1c[nH]cn1)*; Trx = NC[C@H]1CC[C@H](C(=O)O)CC1; 12Ado = NCCCCCCCCCCCC(=O)O; AEEA = NCCOCCOCC(=O)O; Aib = CC(C)(N)C(=O)O; Inp = O=C(O)C1CCNCC1; Bn = c1ccc(C*)cc1

Target: human serum albumin (HSA) (Homo sapiens, UniProt P02768)
Assay: Albumin binding affinity, competition scintillation proximity assay
Settings: for EC50 at 20 h: human, biotinylated human serum albumin on streptavidin-SPA beads, pH 7.4
Method: Streptavidin-SPA beads (GE Healthcare RPNQ0009) were incubated with biotinylated HSA for 5 hours. The beads were washed with buffer to remove unbound HSA. […] After 20 hours of gentle rocking at room temperature the plates were centrifuged and counted on a TopCounter.

human serum albumin (HSA), sequence (P02768 25-609): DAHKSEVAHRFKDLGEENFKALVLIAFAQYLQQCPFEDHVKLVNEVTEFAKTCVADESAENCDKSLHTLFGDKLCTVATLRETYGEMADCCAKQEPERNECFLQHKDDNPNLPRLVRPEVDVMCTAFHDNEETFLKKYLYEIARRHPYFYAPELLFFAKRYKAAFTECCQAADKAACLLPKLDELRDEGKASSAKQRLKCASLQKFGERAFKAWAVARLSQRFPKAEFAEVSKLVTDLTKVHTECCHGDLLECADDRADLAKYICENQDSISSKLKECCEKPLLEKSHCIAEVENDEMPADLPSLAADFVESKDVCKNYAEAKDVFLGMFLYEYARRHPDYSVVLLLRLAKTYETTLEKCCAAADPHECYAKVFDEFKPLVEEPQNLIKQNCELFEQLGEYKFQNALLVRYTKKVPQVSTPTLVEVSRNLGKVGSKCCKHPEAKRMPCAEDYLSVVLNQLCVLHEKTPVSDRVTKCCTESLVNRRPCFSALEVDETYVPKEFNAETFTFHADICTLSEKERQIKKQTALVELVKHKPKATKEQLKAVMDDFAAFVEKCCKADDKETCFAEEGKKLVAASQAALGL

pEC50	EC50 at 20 h [nM]	SMILES
< 5.70		CC[C@H](C)[C@H](NC(=O)[C@H](Cc1ccccc1)NC(=O)[C@H](CCC(=O)O)NC(=O)[C@H](CCCNC(=N)N)NC(=O)[C@H](C)NC(=O)[C@H](C)NC(=O)[C@H](CCC(N)=O)NC(=O)CNC(=O)[C@H](CCC(=O)O)NC(=O)[C@H](CC(C)C)NC(=O)[C@H](Cc1ccc(O)cc1)NC(=O)[C@H](CO)NC(=O)[C@H](CO)NC(=O)[C@@H](NC(=O)[C@H](CC(=O)O)NC(=O)[C@H](CO)NC(=O)[C@@H](NC(=O)[C@H](Cc1ccccc1)NC(=O)[C@@H](NC(=O)CNC(=O)[C@H](CCC(=O)O)NC(=O)[C@H](C)NC(=O)CCc1c[nH]cn1)[C@@H](C)O)[C@@H](C)O)C(C)C)C(=O)N[C@@H](C)C(=O)N[C@@H](Cc1c[nH]c2ccccc12)C(=O)N[C@@H](CC(C)C)C(=O)N[C@H](C(=O)N[C@@H](CCCNC(=N)N)C(=O)NCC(=O)N[C@@H](CCCNC(=N)N)C(=O)N[C@@H](CCCCNC(=O)COCCOCCNC(=O)COCCOCCNC(=O)CC[C@H](NC(=O)[C@H]1CC[C@H](CNC(=O)CCCCCCCCCCCCCCCCCCC(=O)O)CC1)C(=O)O)C(N)=O)C(C)C [Example 25]
	800 to 2000	CC[C@H](C)[C@H](NC(=O)[C@H](Cc1ccccc1)NC(=O)[C@H](CCC(=O)O)NC(=O)[C@H](CCCNC(=N)N)NC(=O)[C@H](C)NC(=O)[C@H](C)NC(=O)[C@H](CCC(N)=O)NC(=O)[C@H](CCC(=O)O)NC(=O)[C@H](CCC(=O)O)NC(=O)[C@H](CC(C)C)NC(=O)[C@H](Cc1ccc(O)cc1)NC(=O)[C@H](CO)NC(=O)[C@H](CO)NC(=O)[C@@H](NC(=O)[C@H](CC(=O)O)NC(=O)[C@H](CO)NC(=O)[C@@H](NC(=O)[C@H](Cc1ccccc1)NC(=O)[C@@H](NC(=O)CNC(=O)[C@H](CCC(=O)O)NC(=O)[C@H](C)NC(=O)CCc1c[nH]cn1)[C@@H](C)O)[C@@H](C)O)C(C)C)C(=O)N[C@@H](C)C(=O)N[C@@H](Cc1c[nH]c2ccccc12)C(=O)N[C@@H](CC(C)C)C(=O)N[C@H](C(=O)N[C@@H](CCCNC(=N)N)C(=O)NCC(=O)N[C@@H](CCCNC(=N)N)C(=O)NCC(=O)N[C@@H](CCCCNC(=O)COCCOCCNC(=O)COCCOCCNC(=O)CC[C@H](NC(=O)[C@H]1CC[C@H](CNC(=O)CCCCCCCCCCCCCCCCCCC(=O)O)CC1)C(=O)O)C(N)=O)C(C)C [Example 27, [DesaminoHis7,Glu22,Arg26,Arg34]GLP-1-(7-37)Lys[2-(2-{2-[2-(2-{2-[4-Carboxy-4-({trans-4-[(19-carboxy-nonadecanoylamino)methyl]cyclohexanecarbonyl}amino)butyrylamino]ethoxy}ethoxy)acetylamino]ethoxy}ethoxy)acetyl]-amide] (Desaminohistidyl-AEGTFTSDVSSYLEEQAAREFIAWLVRGRGK([AEEA-AEEA-γGlu-Trx-C20 diacid])-NH2)
< 5.70		CC[C@H](C)[C@H](NC(=O)[C@H](Cc1ccccc1)NC(=O)[C@H](CCC(=O)O)NC(=O)[C@H](CCCNC(=N)N)NC(=O)[C@H](C)NC(=O)[C@H](C)NC(=O)[C@H](CCC(N)=O)NC(=O)CNC(=O)[C@H](CCC(=O)O)NC(=O)[C@H](CC(C)C)NC(=O)[C@H](Cc1ccc(O)cc1)NC(=O)[C@H](CO)NC(=O)[C@H](CO)NC(=O)[C@@H](NC(=O)[C@H](CC(=O)O)NC(=O)[C@H](CO)NC(=O)[C@@H](NC(=O)[C@H](Cc1ccccc1)NC(=O)[C@@H](NC(=O)CNC(=O)[C@H](CCC(=O)O)NC(=O)[C@H](C)NC(=O)CCc1c[nH]cn1)[C@@H](C)O)[C@@H](C)O)C(C)C)C(=O)N[C@@H](C)C(=O)N[C@@H](Cc1c[nH]c2ccccc12)C(=O)N[C@@H](CC(C)C)C(=O)N[C@H](C(=O)N[C@@H](CCCNC(=N)N)C(=O)NCC(=O)N[C@@H](CCCNC(=N)N)C(=O)NCC(=O)N[C@@H](CCCCNC(=O)COCCOCCNC(=O)COCCOCCNC(=O)CC[C@H](NC(=O)C1CCN(C(=O)CCCCCCCCCCCCCCCCCCC(=O)O)CC1)C(=O)O)C(=O)O)C(C)C [Example 59, [DesaminoHis7,Arg26,34]-GLP-1 (7-37)-Lys(2-{2-[2-(2-{2-[2-((S)-4-Carboxy-4-{[1-(19-carboxynonadecanoyl)piperidine-4-carbonyl]amino}butyrylamino)ethoxy]ethoxy}acetylamino)ethoxy]ethoxy}acetyl) peptide]
6.10 to 6.52		CC[C@H](C)[C@H](NC(=O)[C@H](Cc1ccccc1)NC(=O)[C@H](CCC(=O)O)NC(=O)[C@H](CCCNC(=N)N)NC(=O)[C@H](C)NC(=O)[C@H](C)NC(=O)[C@H](CCC(N)=O)NC(=O)[C@H](CCC(=O)O)NC(=O)[C@H](CCC(=O)O)NC(=O)[C@H](CC(C)C)NC(=O)[C@H](Cc1ccc(O)cc1)NC(=O)[C@H](CO)NC(=O)[C@H](CO)NC(=O)[C@@H](NC(=O)[C@H](CC(=O)O)NC(=O)[C@H](CO)NC(=O)[C@@H](NC(=O)[C@H](Cc1ccccc1)NC(=O)[C@@H](NC(=O)CNC(=O)[C@H](CCC(=O)O)NC(=O)C(C)(C)NC(=O)[C@@H](N)Cc1c[nH]cn1)[C@@H](C)O)[C@@H](C)O)C(C)C)C(=O)N[C@@H](C)C(=O)N[C@@H](Cc1c[nH]c2ccccc12)C(=O)N[C@@H](CC(C)C)C(=O)N[C@H](C(=O)N[C@@H](CCCNC(=N)N)C(=O)NCC(=O)N[C@@H](CCCNC(=N)N)C(=O)N[C@@H](CCCCNC(=O)COCCOCCNC(=O)COCCOCCNC(=O)C[C@H](NC(=O)C1CCN(C(=O)CCCCCCCCCCCCCCCCCCC(=O)O)CC1)C(=O)O)C(N)=O)C(C)C [Example 4, N-epsilon37{2-[2-(2-{2-[2-((S)-3-carboxy-3-{[1-(19-carboxynonadecanoyl)piperidine-4-carbonyl]amino}propionylamino)ethoxy]ethoxy}acetylamino)ethoxy]ethoxy}acetyl [Aib8,Glu22,Arg26,Arg34,Lys37]GLP-1-(7-37)amide]
7.00 to 9.00		CC[C@H](C)[C@H](NC(=O)[C@H](Cc1ccccc1)NC(=O)[C@H](CCC(=O)O)NC(=O)[C@H](CCCNC(=N)N)NC(=O)[C@H](C)NC(=O)[C@H](C)NC(=O)[C@H](CCC(N)=O)NC(=O)[C@H](CCC(=O)O)NC(=O)[C@H](CCC(=O)O)NC(=O)[C@H](CC(C)C)NC(=O)[C@H](Cc1ccc(O)cc1)NC(=O)[C@H](CO)NC(=O)[C@H](CO)NC(=O)[C@@H](NC(=O)[C@H](CC(=O)O)NC(=O)[C@H](CO)NC(=O)[C@@H](NC(=O)[C@H](Cc1ccccc1)NC(=O)[C@@H](NC(=O)CNC(=O)[C@H](CCC(=O)O)NC(=O)C(C)(C)NC(=O)[C@@H](N)Cc1c[nH]cn1)[C@@H](C)O)[C@@H](C)O)C(C)C)C(=O)N[C@@H](C)C(=O)N[C@@H](Cc1c[nH]c2ccccc12)C(=O)N[C@@H](CC(C)C)C(=O)N[C@H](C(=O)N[C@@H](CCCNC(=N)N)C(=O)NCC(=O)N[C@@H](CCCNC(=N)N)C(=O)NCC(=O)N[C@@H](CCCCNC(=O)COCCOCCNC(=O)CC[C@H](NC(=O)CC[C@H](NC(=O)CCCCCCCCCCCNC(=O)CCCS(=O)(=O)NC(=O)CCCCCCCCCCCCCCCc1nnn[nH]1)C(=O)O)C(=O)O)C(N)=O)C(C)C [Example 46, [Aib8,Glu22,Arg26,Arg34]GLP-1-(7-37)Lys[2-(2-{2-[(S)-4-Carboxy-4-((S)-4-carboxy-4-{12-[4-(16-(1H-tetrazol-5-yl)hexadecanoylsulfamoyl)butyrylamino]dodecanoylamino}-butyrylamino)butyrylamino]ethoxy}ethoxy)acetyl]amide] (H-H[Aib]EGTFTSDVSSYLEEQAAREFIAWLVRGRGK([AEEA-γGlu-γGlu-12Ado-X1])-NH2)
	800 to 2000	CC[C@H](C)[C@H](NC(=O)[C@H](Cc1cccc(C(F)(F)F)c1)NC(=O)[C@H](CCC(=O)O)NC(=O)[C@H](CCCNC(=N)N)NC(=O)[C@H](C)NC(=O)[C@H](C)NC(=O)[C@H](CCC(N)=O)NC(=O)[C@H](CCC(=O)O)NC(=O)[C@H](CCC(=O)O)NC(=O)[C@H](CC(C)C)NC(=O)[C@H](Cc1ccc(O)cc1)NC(=O)[C@H](CO)NC(=O)[C@H](CO)NC(=O)[C@@H](NC(=O)[C@H](CC(=O)O)NC(=O)[C@H](CO)NC(=O)[C@@H](NC(=O)[C@H](Cc1ccccc1)NC(=O)[C@@H](NC(=O)CNC(=O)[C@H](CCC(=O)O)NC(=O)[C@H](C)NC(=O)CCc1c[nH]cn1)[C@@H](C)O)[C@@H](C)O)C(C)C)C(=O)N[C@@H](C)C(=O)N[C@@H](Cc1c[nH]c2ccccc12)C(=O)N[C@@H](CC(C)C)C(=O)N[C@H](C(=O)N[C@@H](CCCNC(=N)N)C(=O)NCC(=O)N[C@@H](CCCNC(=N)N)C(=O)N[C@@H](CCCCNC(=O)COCCOCCNC(=O)COCCOCCNC(=O)C[C@@H](NC(=O)C1CCN(C(=O)CCCCCCCCCCCCCCCCC(=O)O)CC1)C(=O)O)C(N)=O)C(C)C [Example 6, N-epsilon37-[2-(2-[2-(2-[2-(2-((R)-3-[1-(17-Carboxyheptadecanoyl)piperidin-4-ylcarbonylamino]3-carboxypropionylamino)ethoxy)ethoxy]acetylamino)ethoxy]ethoxy)acetyl][DesaminoHis7, Glu22 Arg26, Arg 34, Phe(m-CF3)28]GLP-1-(7-37)amide]

SMILES	pEC50	EC50 at 20 h [nM]
CC[C@H](C)[C@H](NC(=O)[C@H](Cc1ccccc1)NC(=O)[C@H](CC(C)C)NC(=O)[C@H](CCCCNC(=O)COCCOCCNC(=O)COCCOCCNC(=O)C[C@@H](NC(=O)C1CCN(C(=O)CCCCCCCCCCCCCCCCCCC(=O)O)CC1)C(=O)O)NC(=O)[C@@H](NC(=O)[C@H](C)NC(=O)[C@H](CCC(=O)O)NC(=O)[C@H](CCC(=O)O)NC(=O)[C@H](CCC(=O)O)NC(=O)[C@H](CC(C)C)NC(=O)[C@H](CCC(N)=O)NC(=O)[C@H](CCCCN)NC(=O)[C@H](CO)NC(=O)[C@H](CC(C)C)NC(=O)[C@H](CC(=O)O)NC(=O)[C@H](CO)NC(=O)[C@@H](NC(=O)[C@H](Cc1ccccc1)NC(=O)[C@@H](NC(=O)CNC(=O)[C@H](CCC(=O)O)NC(=O)C(C)(C)NC(=O)[C@@H](N)Cc1c[nH]cn1)[C@@H](C)O)[C@@H](C)O)C(C)C)C(=O)N[C@@H](CCC(=O)O)C(=O)N[C@@H](Cc1c[nH]c2ccccc12)C(=O)N[C@@H](CC(C)C)C(=O)N[C@@H](CCCCN)C(=O)N[C@@H](CCC(N)=O)C(=O)NCC(=O)NCC(=O)N1CCC[C@H]1C(=O)N[C@@H](CO)C(=O)N[C@@H](CO)C(=O)NCC(=O)N[C@@H](C)C(=O)N1CCC[C@H]1C(=O)N1CCC[C@H]1C(=O)N1CCC[C@H]1C(=O)N[C@@H](COCc1ccccc1)C(N)=O [Example 2, N-ε^20-{2-[2-(2-{2-[2-((R)-3-carboxy-3-{[1-(19-carboxynonadecanoyl)piperidine-4-carbonyl]amino}propionylamino)ethoxy]ethoxy}acetylamino)ethoxy]ethoxy}acetyl [Aib^2,Leu^14,Lys^20,Gln^28,Ser(O-benzyl)^39] exendin-4 (1-39)amide] (H-H[Aib]EGTFTSDLSKQLEEEAVK([AEEA-AEEA-d(βAsp)-Inp-C20 diacid])LFIEWLKQGGPSSGAPPPS(Bn)-NH2)	6.10 to 6.52	
